Data set [1] addresses K-RAS4B^G12D (Homo sapiens, UniProt P01116, G12D). Kind of data set: biochemical. The following applies: for IC50: K-RAS4B GDP/GTP exchange, eight data points, at least three determinations.
Data set [2] concerns the target K-RAS4B wild-type (Homo sapiens, UniProt P01116). In words: Nucleotide exchange assay (SOS1-mediated GDP/GTP exchange, GDP-Glo), K-RAS4B wild-type. The format is biochemical. The following applies: K-RAS4B GDP/GTP exchange; eight data points, at least three determinations; (*) single determination.
Data set [3] has as its target K-RAS4B G12V (Homo sapiens, UniProt P01116, G12V). In words: Nucleotide exchange assay (SOS1-mediated GDP/GTP exchange, GDP-Glo), K-RAS4B G12V. The class given is biochemical. To be noted: eight data points, at least three determinations, (*) single determination.
Data set [4] in a line: Solubility.
The mark [5] stands for this setting: K-RAS4B form mostly not given, inactive = IC50 > 100 μM (Fig. 3 legend).

26 compounds from PMC11719397, “Monophthalates of betulinic acid and related pentacyclic triterpenes inhibit efficiently the SOS-mediated nucleotide exchange and impact PI3K/AKT signaling in oncogenic K-RAS4B proteins” (RSC Advances, 2025) can be followed below.

In brackets after ≈: the same amount, converted by molar mass. Read-outs that look alike come from different tables or passages of the source. Where only a bound is given, the exact number is not on record here.

In general, IC50 refers to the point on the concentration scale where inhibition reaches its midpoint. Lower therefore signals greater potency in that assay. By solubility is commonly meant how much of the substance goes into solution per volume. A lower solubility goes with a poorly soluble substance.

With `C=C(C)[C@@H]1CC[C@]2(C(=O)O)CC[C@]3(C)[C@H](CC[C@@H]4[C@@]5(C)CC[C@H](O)C(C)(C)[C@@H]5CC[C@]43C)[C@@H]12` [Compound 2, betulinic acid], the IC50 in data set [1] was more than 300 µM.

On to `C[C@H]1[C@H](C)CC[C@]2(C(=O)O)CC[C@]3(C)C(=CC[C@@H]4[C@@]5(C)CC[C@H](O)C(C)(C)[C@@H]5CC[C@]43C)[C@H]12` [Compound 4, Ursolic acid], for which, in data set [1], the IC50 is more than 300 µM.

As for `C=C(C)[C@@H]1CC[C@]2(C(=O)O)CC[C@]3(C)[C@H](CC[C@@H]4[C@@]5(C)CC[C@H](OC(C)=O)C(C)(C)[C@@H]5CC[C@]43C)[C@@H]12` [Compound 8], the “inhibition of GDP/GTP exchange (in words)” value in data set [1] (setting [5]) was “inactive”.

Turning to `C=C(C)[C@@H]1CC[C@]2(C(=O)O)CC[C@]3(C)[C@H](CC[C@@H]4[C@@]5(C)CC[C@H](OC(=O)c6ccccc6)C(C)(C)[C@@H]5CC[C@]43C)[C@@H]12` [Compound 9], the “inhibition of GDP/GTP exchange (in words)” value in data set [1] (setting [5]) was “inactive”.

`C=C(C)[C@@H]1CC[C@]2(C(=O)OC)CC[C@]3(C)[C@H](CC[C@@H]4[C@@]5(C)CC[C@H](O)C(C)(C)[C@@H]5CC[C@]43C)[C@@H]12` [Compound 10]: the “inhibition of GDP/GTP exchange (in words)” value in data set [1] (setting [5]) was “inactive”.

For `C=C(C)[C@@H]1CC[C@]2(C(=O)NCC(=O)O)CC[C@]3(C)[C@H](CC[C@@H]4[C@@]5(C)CC[C@H](O)C(C)(C)[C@@H]5CC[C@]43C)[C@@H]12` [Compound 12], in data set [1] (setting [5]), the “inhibition of GDP/GTP exchange (in words)” value is “inactive”.

As to `C=C(C)[C@@H]1CC[C@]2(C(=O)On3nnc4cccnc43)CC[C@]3(C)[C@H](CC[C@@H]4[C@@]5(C)CC[C@H](O)C(C)(C)[C@@H]5CC[C@]43C)[C@@H]12` [Compound 13], in data set [1] (setting [5]), the “inhibition of GDP/GTP exchange (in words)” value is “inactive”.

On to `CC(C=O)[C@@H]1CC[C@]2(C(=O)O)CC[C@]3(C)[C@H](CC[C@@H]4[C@@]5(C)CC[C@H](OC(=O)c6ccccc6C(=O)O)C(C)(C)[C@@H]5CC[C@]43C)[C@@H]12` (some centres unmarked) [Compound 14], for which the IC50 in data set [2] was 37.3 ± 19.1 µM; in data set [1], 48.5 ± 12.7 µM; in data set [3], 51.1 ± 6.2 µM. The compound further yielded a solubility in data set [4] of 447 µM (≈ 278 µg/mL). The “solubility (in words)” value in data set [4] is given as “well soluble”.

Turning to `C=C(C)[C@@H]1CC[C@]2(C(=O)NCCN)CC[C@]3(C)[C@H](CC[C@@H]4[C@@]5(C)CC[C@H](O)C(C)(C)[C@@H]5CC[C@]43C)[C@@H]12` [Compound 17], in data set [1] (setting [5]), the “inhibition of GDP/GTP exchange (in words)” value is “inactive”.

Consider `C=C(C)[C@@H]1CC[C@]2(C(=O)O)CC[C@]3(C)[C@H](CC[C@@H]4[C@@]5(C)CCC(=O)C(C)(C)[C@@H]5CC[C@]43C)[C@@H]12` [Compound 20, betulonic acid], for which the “inhibition of GDP/GTP exchange (in words)” value in data set [1] (setting [5]) is “inactive”.

For `C=C(C)[C@@H]1CC[C@]2(C(=O)NCC(=O)OCC)CC[C@]3(C)[C@H](CC[C@@H]4[C@@]5(C)CC[C@H](O)C(C)(C)[C@@H]5CC[C@]43C)[C@@H]12` [Compound 21], in data set [1], the “inhibition of GDP/GTP exchange (in words)” value is “inactive”.

On to `C=C(C)[C@@H]1CC[C@]2(C(=O)O)CC[C@]3(C)[C@H](CC[C@@H]4[C@@]5(C)CC[C@H](OC(=O)c6cc7ccccc7cc6C(=O)O)C(C)(C)[C@@H]5CC[C@]43C)[C@@H]12` [Compound 22], for which the “inhibition of GDP/GTP exchange (in words)” value in data set [1] is listed as “loss of GDP/GTP exchange inhibition”.

Compound `COC(=O)[C@]12CC[C@@H](C(C)C(=O)O)[C@@H]1[C@H]1CC[C@@H]3[C@@]4(C)CC[C@H](OC(C)=O)C(C)(C)[C@@H]4CC[C@@]3(C)[C@]1(C)CC2` (some centres unmarked) [Compound 27] had a half-inhibitory concentration (IC50) in data set [1] of 13.8 ± 4.2 µM.

Take `C=C(C)[C@@H]1CC[C@]2(COC(=O)CCC(=O)O)CC[C@]3(C)[C@H](CC[C@@H]4[C@@]5(C)CC[C@H](O)C(C)(C)[C@@H]5CC[C@]43C)[C@@H]12` [Compound 31]: the IC50 in data set [2] is 25.6 ± 4.3 µM; in data set [1] it was 10.4 ± 0.8 µM; in data set [3], 12.7 ± 5.5 µM.

For the compound `C=C(C)[C@@H]1CC[C@]2(CN)CC[C@]3(C)[C@H](CC[C@@H]4[C@@]5(C)CC[C@H](O)C(C)(C)[C@@H]5CC[C@]43C)[C@@H]12` [Compound 35], in data set [1], the “inhibition of GDP/GTP exchange (in words)” value is “inactive”.

As for `COc1cc(C(=O)O)c(C(=O)O[C@H]2CC[C@]3(C)[C@H]4CC=C5[C@@H]6[C@@H](C)[C@H](C)CC[C@]6(C(=O)O)CC[C@@]5(C)[C@]4(C)CC[C@H]3C2(C)C)cc1OC` [Compound 38], the IC50 turned out to be 53.6 ± 7.3 µM in data set [2] and 55.6 ± 6.5 µM in data set [1]. In data set [4], the solubility amounted to 383 µM (≈ 255 µg/mL).

For the compound `CC1(C)CC[C@]2(C(=O)Nc3nnn[nH]3)CC[C@]3(C)C(=CC[C@@H]4[C@@]5(C)CC[C@H](O)C(C)(C)[C@@H]5CC[C@]43C)[C@@H]2C1` [Compound 39], the IC50 in data set [2] was found to be 12.8 ± 2.9 µM; in data set [1] it was 27.8 ± 2.6 µM; in data set [3] it was 9.18 ± 0.99 µM.

In the case of `CC1(C)CC[C@]2(C(=O)NCCN)CC[C@]3(C)C(=CC[C@@H]4[C@@]5(C)CC[C@H](O)C(C)(C)[C@@H]5CC[C@]43C)[C@@H]2C1` [Compound 40], in data set [1] (setting [5]), the “inhibition of GDP/GTP exchange (in words)” value is “inactive”.

As for `CC1(C)CC[C@]2(C(=O)NO)CC[C@]3(C)C(=CC[C@@H]4[C@@]5(C)CC[C@H](OC(=O)c6cc(F)c(F)cc6C(=O)O)C(C)(C)[C@@H]5CC[C@]43C)[C@@H]2C1` [Compound 41], the results for the IC50 in data set [2], in data set [1] and in data set [3] were 4.68 µM, 7.61 ± 0.7 µM and 5.47 µM, respectively.

Turning to `CC1(C)CC[C@]2(C(=O)O)CC[C@]3(C)C(=CC[C@@H]4[C@@]5(C)CC[C@H](OC(=O)c6cc(F)c(F)cc6C(=O)NO)C(C)(C)[C@@H]5CC[C@]43C)[C@@H]2C1` [Compound 42, oleanoyl 4,5-difluoro-2-(hydroxycarbamoyl)benzo-ate], the “inhibition of GDP/GTP exchange (in words)” value in data set [1] (setting [5]) was “completely inactive”.

`CC1(C)CC[C@]2(C(=O)O)CC[C@]3(C)C(=CC[C@@H]4[C@@]5(C)CC[C@H](OC(=O)c6cc(F)c(F)cc6C(=O)O)C(C)(C)[C@@H]5CC[C@]43C)[C@@H]2C1` [Compound 43]: the IC50 turned out to be 1.5 ± 0.08 µM in data set [2], 2.22 ± 0.29 µM in data set [1] and 2.71 ± 0.39 µM in data set [3]. Also, the solubility in data set [4] is 394 µM (≈ 252 µg/mL).

Turning to `CC1(C)CC[C@]2(C(=O)O)CC[C@]3(C)C(=CC[C@@H]4[C@@]5(C)CC[C@H](OC(=O)c6c(F)ccc(F)c6C(=O)O)C(C)(C)[C@@H]5CC[C@]43C)[C@@H]2C1` [Compound 44], the IC50 in data set [2] worked out at 1.33 ± 0.24 µM; in data set [1], 2.88 ± 0.89 µM; in data set [3], 2.51 ± 0.24 µM. In data set [4], the solubility came to 424 µM (≈ 272 µg/mL).

In the case of `CC1(C)CC[C@]2(C(=O)O)CC[C@]3(C)C(=CC[C@@H]4[C@@]5(C)CC[C@H](OC(=O)c6sccc6C(=O)O)C(C)(C)[C@@H]5CC[C@]43C)[C@@H]2C1` [Compound 45], the IC50 in data set [2] was 1.52 ± 0.5 µM; in data set [1] it was 3.06 ± 0.79 µM; in data set [3], 5.62 ± 0.93 µM. The same compound showed a solubility in data set [4] of 390 µM (≈ 238 µg/mL).

As for `CC1(C)CC[C@]2(C(=O)O)CC[C@]3(C)C(=CC[C@@H]4[C@@]5(C)CC[C@H](OC(=O)c6ccsc6C(=O)O)C(C)(C)[C@@H]5CC[C@]43C)[C@@H]2C1` [Compound 46], the IC50 in data set [2] amounted to 4.15 ± 1.32 µM; in data set [1], 3.67 ± 0.35 µM; in data set [3], 8.12 ± 1.24 µM. In addition, the solubility in data set [4] was determined as 421 µM (≈ 257 µg/mL).

`COC(=O)c1ccccc1C(=O)O[C@H]1CC[C@]2(C)[C@H]3CC=C4[C@@H]5CC(C)(C)CC[C@]5(C(=O)O)CC[C@@]4(C)[C@]3(C)CC[C@H]2C1(C)C` [Compound 48]: the “inhibition of GDP/GTP exchange (in words)” value in data set [1] (setting [5]) is “completely inactive”.

`C#Cc1c(F)ccc2cc(O)cc(-c3ncc4c(N5CC6CCC(C5)N6)nc(OC[C@@]56CCCN5C[C@H](F)C6)nc4c3F)c12` [Compound 53, MRTX1133, reference compound] came in with a solubility in data set [4] of 322 µM (≈ 193 µg/mL).
